The values below are quoted from earlier work in patent US7994139B2, “Antiviral therapeutic agents” (BioCryst Pharmaceuticals, Inc., priority 2008, dated 2011).

For the data set, the system named is HCV.

As for `NC(=O)c1ncn([C@@H]2O[C@H](CO)[C@@H](O)[C@H]2O)n1` [Ribavirin, 1-β-D-ribofuranosyl-1-1,2,4-triazole-3-carboxamide], under “patients, used as sole treatment”, the “serum levels of HCV-RNA” value is “does not lower serum levels of HCV-RNA”. Further, the “patients in whom serum amino transferase levels are reduced to normal” value (ribavirin alone) is recorded as 40%.
